Data from patent US8404664B2, “Phosphonated Rifamycins and uses thereof for the prevention and treatment of bone and joint infections” (Targanta Therapeutics, Inc., priority 2005, dated 2013).
Values after ≈ are worked out from the molar mass of the structure shown. Marks after values point to notes of the source that are not given here.

Key:
[1] = tested on: S. aureus ATCC 13709 Novobiocin resistant mutant (bone infection); experiment: Prophylactic efficacy in rat model of S. aureus bone infection; format: in vivo; details: rat tibia 24 h postinfection, 3 days prior to infection
Procedure: Specifically, a spontaneous Novobiocin resistant mutant strain of S. aureus ATCC 13709 (a clinical osteomyelitis isolate), was grown overnight at 37° C. in brain heart infusion broth (BHIB). After 16 h of growth, cells were subcultured into fresh BHIB and incubated for 4 to 5 h at 37° C. The cells were washed twice with phosphate-buffered saline (PBS) and resuspended in BHIB supplemented with 10% (vol./vol.) fetal bovine serum at a density of approximately 10^10 colony forming units (CFU)/ml (based upon turbidimetry). The suspension was aliquoted and a portion was used to check the CFU count. The culture was stored frozen (−80° C.) and was used without subculture. For use as an inoculum the culture was thawed, diluted in PBS and kept in an ice bath until it was used.
Animals were infected as described by O'Reilly et al. (Antimicrobial Agents and Chemotherapy (1992), 36(12): 2693-97) to generate the bone infection. Female CD rats (age, 57 to 70 days; n=5/group; Charles River, St-Constant, Canada) were anaesthetized by isofluorane before and during the surgery. Following complete induction of anesthesia, the rat was placed ventral side up and hair was shaved from the surgical site. The skin over the leg was cleaned and disinfected (proviodine-ethanol 70%). A longitudinal incision below the knee joint was made in the sagital plane. The incision was made over the bone below the “knee joint” (tibia head or condyle) but not completely extending to the ankle. A high speed drill fitted with a 2 mm bulb bit was used to drill a hole into the medullar cavity of the tibia. Rats were injected intra-tibially with 0.05 ml 5% sodium morrhuate (sclerosing agent) and then with 0.05 ml of S. aureus suspension (ca. 2×10^7 CFU/rat). The hole was sealed by applying a small amount of dry dental cement which immediately absorbs fluids and adheres to the site. The wound was closed using 3 metal skin clips. Moxifloxacin (as a positive control) was injected once at 10 mg/kg intravenously 1 h postinfection in saline, while the Rifamycin derived prodrugs (prepared in 0.9% saline) were injected at the dose indicated in Table 3 as a single intravenous bolus at different time points prior to the infection.
Infected rats were sacrificed by CO2 asphyxiation 24 h postinfection to monitor the bacterial CFU count. Infected tibiae were removed, dissected free of soft tissue, and weighed. The bones were ground, resuspended in 5 ml 0.9% NaCl, serially diluted and processed for quantitative cultures. For compounds 50, 68 and 81, 1 ml of the 0.9% NaCl solution was added to 50 mg of charcoal before serial dilutions. Treatment efficacy was measured in terms of Log viable bacteria (Log CFU per gram of bone). […] The limit of detection is 2 Log CFU. […] Differences were considered significant when the P value was <0.05 when comparing treated infected animals to the untreated infected ones. The doses used, the amount of time separating the treatment from the time of infection and the treatment outcomes are shown in Table 3.

[2] = tested on: S. aureus RN4220; experiment: Antibacterial susceptibility (MIC), NCCLS broth microdilution; format: cell-based; details: CAMHB, 37° C., 18 h; for MIC: Staphylococcus aureus, RN4220, read-out: Minimum inhibitory concentration, S. aureus RN4220
Procedure: (§1) Susceptibility of S. aureus strains to the known antibiotics and synthesized compounds was determined by following the guidelines set by NCCLS (M26-A). Compounds were diluted two-fold serially in DMSO and transferred to cation-adjusted Mueller Hinton broth (CAMHB; Becton Dickinson). 50 μL of compounds diluted in CAMHB was mixed with 100 μL of bacteria diluted in CAMHB in 96-well microtiter plates. The final concentration of micro-organisms in the assay was 5×10^5 c.f.u. per mL and the final concentration of DMSO in the assay was 1.25%. Assays were set up in duplicate and incubated at 37° C. for 18 h. The lowest concentration of compound that inhibited visible growth was reported as the minimum inhibitory concentration (MIC).

[3] = tested on: S. aureus BK85 (Fluoroquinolone resistant MRSA); experiment: as above; format: cell-based; details: for MIC: Staphylococcus aureus, read-out: Minimum inhibitory concentration, S. aureus BK85
Procedure: as §1

[4] = tested on: S. aureus ATCC 43300 (Fluoroquinolone sensitive MRSA); experiment: as above; format: cell-based; details: for MIC: Staphylococcus aureus, read-out: Minimum inhibitory concentration, S. aureus ATCC 43300
Procedure: as §1

[5] = tested on: S. aureus ATCC 13709; experiment: as above; format: cell-based; details: for MIC: Staphylococcus aureus, ATCC13709, read-out: Minimum inhibitory concentration, S. aureus ATCC 13709
Procedure: as §1

[6] = tested on: E. coli LBB925 (tolC mutant); experiment: as above; format: cell-based; details: for MIC: Escherichia coli, read-out: Minimum inhibitory concentration, E. coli LBB925; for Minimum inhibitory concentration, E. coli LBB925: tolC mutant
[7] = tested on: S. aureus ATCC 13709; experiment: Antibacterial susceptibility (MIC) in the presence of serum; format: cell-based; details: for MIC: Staphylococcus aureus, ATCC13709, 18 h
Procedure: as §1
Susceptibility testing experiments were also carried out in the presence of serum.
These experiments were carried out similar to the susceptibility testing with the following modifications. 75 μL of compounds diluted in CAMHB was mixed with 75 μL of bacteria diluted in 100% serum from any given source (commercial pooled mouse serum (MS) and human serum (HS), Equitech-Bio Inc.) or diluted in 8% purified human serum albumin (HSA) (Calbiochem). The final concentration of animal serum in the assay was 50% and the final concentration of purified human serum albumin in the assay was 4%; the concentrations of all other components were identical to those described for susceptibility testing.

[8] = tested on: S. aureus ATCC 13709 Novobiocin and Rifampicin resistant variant; experiment: microbe, parasite or virus in culture; format: cell-based; details: for MIC: Staphylococcus aureus, ATCC13709, read-out: Minimum inhibitory concentration, S. aureus ATCC 13709 variant; for Minimum inhibitory concentration, S. aureus ATCC 13709 variant: Novobiocin and Rifampicin resistant variant
Procedure: as §1

[9] = Regeneration of drug from bone powder-bound prodrug; format: in vitro ADME; details: for % Conversion of bone-bound prodrug to parent drug: 24 h incubation, 37° C.; for Impact of the medium on the rate of regeneration of parent drug (in words): serum compared to PBS
Procedure: Amounts of parent drug “regenerated” from the phosphonated prodrug were measured as follows. Washed bone powder-bound prodrugs from the above experiment were resuspended in 400 μL PBS+2% DMSO or in 400 μL 50% (v/v in PBS+2% DMSO) human or rat serum. The suspension was incubated overnight at 37° C., centrifuged at 13,000 rpm for 2 min and the supernatant was recovered. The amount of regenerated parent drug in the supernatant was determined by measurements using the microbiological assay that was previously described for the prodrugs themselves. The amount of prodrug was deduced from standard curves of known amounts of parent drug that were used as reference for each experiment.

[10] = single dose 20 mg/kg parent drug equivalent
[11] = read-out: Minimum inhibitory concentration, S. aureus ATCC 13709 + 50% Human Serum
[12] = read-out: Minimum inhibitory concentration, S. aureus ATCC 13709 + 50% Mouse Serum
[13] = read-out: Minimum inhibitory concentration, S. aureus ATCC 13709 + 50% Rat Serum

Structure (SMILES): CO[C@H]1/C=C/O[C@@]2(C)Oc3c(C)c(O)c4c(=O)c(c5oc6cc(N7CCN(CC(C)C)CC7)cc(O)c6nc-5c4c3C2=O)NC(=O)/C(C)=C\C=C\[C@H](C)[C@H](O)[C@@H](C)[C@@H](O)[C@@H](C)[C@H](OC(C)=O)[C@@H]1C [Rifalazil, 1′,4-Didehydro-1-deoxy-1,4-dihydro-3′-hydroxy-5′-[4-(2-methylpropyl)-1-piperazinyl]-1-oxorifamycin VIII, reference compound]
- Measured bacterial titer ([1]; single dose 10 mg/kg parent drug equivalent): 2.21 ± 0.34 Log CFU/g of bone
- Measured bacterial titer [1, 10]: 4.08 ± 1.53^a Log CFU/g of bone
- MIC [2]: 0.00048 µg/mL (≈ 0.51 nM)
- MIC [3]: 0.001 µg/mL (≈ 1.06 nM)
- MIC [4]: 0.001 µg/mL (≈ 1.06 nM)
- MIC [5]: 0.001 µg/mL (≈ 1.06 nM)
- MIC [6]: 16 µg/mL (≈ 17000 nM)
- MIC [7, 11]: 0.032 µg/mL
- MIC [7, 12]: 0.032 µg/mL
- MIC [7, 13]: 0.0078 µg/mL
- MIC [8]: 16 µg/mL (≈ 17000 nM)

Structure (SMILES): CCN(CC)CC.CCN(CC)CC.CO[C@H]1/C=C/O[C@@]2(C)Oc3c(C)c(O)c4c(c3C2=O)C2=NC3(CCN(CC(C)C)CC3)N(C(=O)OCOC(=O)CCCC(P(=O)(O)O)P(=O)(O)O)C2=C(NC(=O)/C(C)=C\C=C\[C@H](C)[C@H](O)[C@@H](C)[C@@H](O)[C@@H](C)[C@H](OC(C)=O)[C@@H]1C)C4=O [Compound 50]
- Measured bacterial titer [1, 10]: 6.31 ± 0.82 Log CFU/g of bone
- Minimum inhibitory concentration, S. aureus RN4220 [2]: 0.25 µg/mL
- Minimum inhibitory concentration, S. aureus BK85 [3]: 0.25 µg/mL
- Minimum inhibitory concentration, S. aureus ATCC 43300 [4]: 0.25 µg/mL
- Minimum inhibitory concentration, S. aureus ATCC 13709 [5]: 0.25 µg/mL
- Minimum inhibitory concentration, E. coli LBB925 [6]: 16 µg/mL
- % Conversion of bone-bound prodrug to parent drug ([9]; 50% Rat Serum): 2.68%
- % Conversion of bone-bound prodrug to parent drug ([9]; PBS): 2.65%
- Impact of the medium on the rate of regeneration of parent drug (in words) [9]: not significantly impacted
- Impact of serum on the MICs (in words) [7]: no impact
- Minimum inhibitory concentration, S. aureus ATCC 13709 + 50% Human Serum [7]: 0.125 µg/mL
- Minimum inhibitory concentration, S. aureus ATCC 13709 + 50% Mouse Serum [7]: 0.125 µg/mL
- Minimum inhibitory concentration, S. aureus ATCC 13709 + 50% Rat Serum [7]: 0.032 µg/mL
- Activity against the Rifampicin resistant variant of S. aureus ATCC13709 (in words) [8]: complete lack of activity
- Minimum inhibitory concentration, S. aureus ATCC 13709 variant [8]: >128 µg/mL

Structure (SMILES): CO[C@H]1/C=C/O[C@@]2(C)Oc3c(C)c(O)c4c(=O)c(c5oc6cc(N7CCC(OC(=O)CCC(=O)NC(P(=O)(O)O)P(=O)(O)O)CC7)cc(O)c6nc-5c4c3C2=O)NC(=O)/C(C)=C\C=C\[C@H](C)[C@H](O)[C@@H](C)[C@@H](O)[C@@H](C)[C@H](OC(C)=O)[C@@H]1C [Compound 68]
- Measured bacterial titer [1, 10]: 4.86 ± 0.66 Log CFU/g of bone
- Minimum inhibitory concentration, S. aureus RN4220 [2]: 0.25 µg/mL (≈ 213 nM)
- Minimum inhibitory concentration, S. aureus BK85 [3]: 0.25 µg/mL (≈ 213 nM)
- Minimum inhibitory concentration, S. aureus ATCC 43300 [4]: 0.0625 µg/mL (≈ 53.3 nM)
- Minimum inhibitory concentration, S. aureus ATCC 13709 [5]: 0.0625 µg/mL (≈ 53.3 nM)
- Minimum inhibitory concentration, E. coli LBB925 [6]: 64 µg/mL (≈ 54600 nM)
- Regeneration of parent drug once bound to bone (in words) [9]: only slightly regenerates
- % Conversion of bone-bound prodrug to parent drug ([9]; 50% Rat Serum): 0.24%
- % Conversion of bone-bound prodrug to parent drug ([9]; PBS): 0.02%
- Impact of the medium on the rate of regeneration of parent drug (in words) [9]: significant acceleration
- Minimum inhibitory concentration, S. aureus ATCC 13709 + 50% Human Serum [7]: 1 µg/mL
- Minimum inhibitory concentration, S. aureus ATCC 13709 + 50% Mouse Serum [7]: 1 µg/mL
- Minimum inhibitory concentration, S. aureus ATCC 13709 + 50% Rat Serum [7]: 2 µg/mL
- Activity against the Rifampicin resistant variant of S. aureus ATCC13709 (in words) [8]: complete lack of activity
- Minimum inhibitory concentration, S. aureus ATCC 13709 variant [8]: >128 µg/mL

Structure (SMILES): CO[C@H]1/C=C/O[C@@]2(C)Oc3c(C)c(O)c4c(=O)c(c5oc6cc(N7CCC(O)CC7)cc(O)c6nc-5c4c3C2=O)NC(=O)/C(C)=C\C=C\[C@H](C)[C@H](O)[C@@H](C)[C@@H](O)[C@@H](C)[C@H](OC(C)=O)[C@@H]1C [Compound 63, 1′,4-Didehydro-1-deoxy-1,4-dihydro-3′-hydroxy-5′-[4-hydroxy-1-piperidinyl]-1-oxorifamycin VIII]
- Measured bacterial titer [1, 10]: 2.84 ± 0.93 Log CFU/g of bone
- MIC [2]: 0.00048 µg/mL (≈ 0.533 nM)
- MIC [3]: 0.00048 µg/mL (≈ 0.533 nM)
- MIC [4]: 0.00048 µg/mL (≈ 0.533 nM)
- MIC [5]: 0.00048 µg/mL (≈ 0.533 nM)
- MIC [6]: 8 µg/mL (≈ 8890 nM)
- MIC [7, 11]: 0.0078 µg/mL
- MIC [7, 12]: 0.0156 µg/mL
- MIC [7, 13]: 0.032 µg/mL
- MIC [8]: 2 µg/mL (≈ 2220 nM)
